Data reported in US9920136B2, “Posaconazole immunoassays” (ARK Diagnostics, Inc., priority 2013, dated 2018).

Legend:
[1] = test system: Ab15421 (rabbit polyclonal antibody to posaconazole); experiment: Specificity of the immunoassay: cross-reactivity to antifungal triazoles; type: binding; conditions: Ab15421 with POS-IV G6PDH; for Cross-reaction of Ab15421 with other azole antifungals (in words): human serum samples, 10 μg/mL; for Cross-reactivity (%): triazole 20 μg/ml added to Posaconazole 10 μg/ml vs Posaconazole 10 μg/ml control, human serum
From the text: Antibodies obtained using any of the disclosed techniques are screened or purified not only for their ability to react with posaconazole, but for a low cross-reactivity with potential interfering substances. “Cross-reactivity” may be determined in a quantitative immunoassay by establishing a standard curve using known dilutions of the target analyte, posaconazole. The standard curve is then used to calculate the apparent concentration of the interfering substance present in various known amounts in samples assayed under similar condition. The cross-reactivity can be calculated as the apparent concentration divided by the actual concentration multiplied by 100. A certain immunoassay for determining cross-reactivity is a homogeneous enzyme immunoassay using a wild type G6PDH as described in U.S. Pat. No. 3,817,837 or mutant G6PDH engineered to contain a cysteine per subunit as described in U.S. Pat. Nos. 6,033,890, 6,090,567 and 6,455,288. Furthermore, the cross-reactivity can be determined in the same type of immunoassay in which the antibody will ultimately be used.
To human serum negative for antifungal azoles was added posaconazole dissolved in methanol to achieve a concentration of 10 μg/mL of posaconazole. […]
The assay was calibrated as described in Example 8 using Enzyme Conjugate Reagent NB051:154 containing conjugate POS-IV G6PDH and Antibody Reagent NB051:154 containing Ab15421. The testing was performed on the HITACHI 917. The samples were quantified from the calibration curve generated.

[2] = cited from earlier work
[3] = test system: Ab15421 (rabbit polyclonal antibody to posaconazole); experiment: Homogeneous enzyme immunoassay calibration curve (POS-IV G6PDH conjugate and Ab15421) in pooled human serum; type: binding; conditions: HITACHI 917, 340 nm
Protocol: Ab15421 was used to measure enzyme activity, generate a calibration curve, and evaluate assay precision, accuracy and specificity. Ab15421 was added into the antibody diluent to prepare the antibody reagent. The antibody reagent included Ab15421 as prepared above, buffer, stabilizers, preservatives, and the substrates for the enzyme conjugate nicotinamide adenine dinucleotide (NAD^+) and glucose-6-phosphate. Enzyme conjugate POS-IV G6PDH was added into the conjugate reagent to prepare the enzyme conjugate reagent. The enzyme conjugate reagent included the conjugate, buffer, stabilizers and preservatives. Enzyme conjugate POS-IV G6PDH was used with Ab15421 in examples below.
Ab15421 was added into the antibody diluent to prepare the antibody reagent. The antibody reagent included Ab15421 as prepared above, buffer, stabilizers, preservatives, and the substrates for the enzyme conjugate NAD^+ and glucose 6 phosphate. Enzyme conjugate POS-IV G6PDH or a label protein including alkaline phosphatase, β-galactosidase and horse radish peroxidase was added into the conjugate reagent to prepare the enzyme conjugate reagent. The enzyme conjugate reagent included the conjugate, buffer, stabilizers and preservatives.
The posaconazole antibodies and enzyme conjugates were used in a homogeneous assay format to detect posaconazole samples. Posaconazole containing sample was incubated with antibody reagent followed by the addition of the enzyme conjugate reagent. The enzyme conjugate activity decreased upon binding to Ab15421. The enzyme conjugate, which was not bound to Ab15421, catalyzed the oxidation of glucose 6-phosphate (G6P). The oxidation of G6P was coupled with the reduction of NAD^+ to NADH, which was measured at 340 nm. The change in the absorbance at 340 nm was measured spectrophotometrically. The posaconazole concentration in a sample was measured in terms of G6PDH activity. The increase in the rate at 340 nm was due to the formation of NADH and was proportional to the enzyme conjugate activity. An assay curve was generated using posaconazole added into serum negative for posaconazole. The assay rate increased with increasing the concentration of free drug in the sample.
Posaconazole was dissolved in methanol to give a stock solution of 1000 μg/mL. Pooled human serum was aliquoted in 10 mL portions. Posaconazole stock solution was added to the aliquots of human serum in preparing a series of known concentrations of posaconazole calibrators ranging from 0 to 16 μg/mL. The assay was performed using Enzyme Conjugate Reagent NB051:154 containing conjugate POS-IV G6PDH and Antibody Reagent NB051:154 containing Ab15421. Calibration curves were generated on the HITACHI 917 automated clinical chemistry analyzer, as described in Example 7 by measuring each level in duplicate.

Q: With OC(Cn1cncn1)(Cn1cncn1)c1ccc(F)cc1F [Fluconazole] as the compound, how does the “Cross-reaction of Ab15421 with other azole antifungals (in words)” value [1] read?
A: Its value is “did not crossreact”.

Q: What about the “Cross-reactivity (%)” value [1] of the same compound?
A: The value was <0.01%.

Q: Which “Cross-reaction of Ab15421 with other azole antifungals (in words)” value [1] does the source give for C[C@@H](c1ncncc1F)[C@](O)(Cn1cncn1)c1ccc(F)cc1F [Voriconazole] here?
A: Its value is “did not crossreact”.

Q: What about the “Cross-reactivity (%)” value [1] of the same compound?
A: Its value is <0.01%.

Q: With CC[C@@H]([C@H](C)O)n1ncn(-c2ccc(N3CCN(c4ccc(OC[C@@H]5CO[C@@](Cn6cncn6)(c6ccc(F)cc6F)C5)cc4)CC3)cc2)c1=O [Posaconazole, 4-[4-[4-[4-[[(3R,5R)-5-(2,4-difluorophenyl)tetrahydro-5-(1H 1,2,4-triazol-1-ylmethyl)-3-furanyl]methoxy]phenyl]-1-piperazinyl]phenyl]-2-[(1S,2S)-1-ethyl-2-hydroxypropyl]-2,4-dihydro-3H-1,2,4-triazol-3-one] as the compound, how does the “Increase of bioavailability on coadministration with food” value ([2]; coadministration with food) read?
A: Its value is “up to 4 fold”.

Q: What about the “Bioavailability (in words)” value ([2]; oral, saturable absorption) of the same compound?
A: Its value is “low and highly variable bioavailability”.

Q: What about the “Reaction Rate (mA/min) Average of Duplicates” value (from here on “Reaction Rate (mA/min) Average”) ([3]; Posaconazole Conc. 1.0 μg/mL in pooled human serum) of the same compound?
A: Its value is 165.7 mA/min.

Q: What about the “Reaction Rate (mA/min) Average” value ([3]; Posaconazole Conc. 2.0 μg/mL in pooled human serum) of the same compound?
A: Its value is 235.5 mA/min.

Q: And the “Reaction Rate (mA/min) Average” value ([3]; Posaconazole Conc. 4.0 μg/mL in pooled human serum)?
A: Its value is 304.7 mA/min.

Q: And the “Reaction Rate (mA/min) Average” value ([3]; Posaconazole Conc. 8.0 μg/mL in pooled human serum)?
A: Its value is 371.7 mA/min.

Q: What about the “Reaction Rate (mA/min) Average” value ([3]; Posaconazole Conc. 16.0 μg/mL in pooled human serum) of the same compound?
A: Its value is 409.4 mA/min.
